This is an account of results in patent US6589949B1, “3-oxo-2,1-benzisoxazol-1(3H)-carboxamides for treatment of CNS diseases” (Bayer Aktiengesellschaft, priority 1999, dated 2003).

The target of data set [1] is T1, acylpeptide hydrolase (ACPH) (Rattus norvegicus, UniProt P13676).
T1 construct: 50 μl of brain homogenate and 100 μM N-acetyl-methionyl-aminomethyl-coumarin as the enzyme substrate; from tissue; host or cells: rat brain homogenate
T1 sequence (P13676 1-732): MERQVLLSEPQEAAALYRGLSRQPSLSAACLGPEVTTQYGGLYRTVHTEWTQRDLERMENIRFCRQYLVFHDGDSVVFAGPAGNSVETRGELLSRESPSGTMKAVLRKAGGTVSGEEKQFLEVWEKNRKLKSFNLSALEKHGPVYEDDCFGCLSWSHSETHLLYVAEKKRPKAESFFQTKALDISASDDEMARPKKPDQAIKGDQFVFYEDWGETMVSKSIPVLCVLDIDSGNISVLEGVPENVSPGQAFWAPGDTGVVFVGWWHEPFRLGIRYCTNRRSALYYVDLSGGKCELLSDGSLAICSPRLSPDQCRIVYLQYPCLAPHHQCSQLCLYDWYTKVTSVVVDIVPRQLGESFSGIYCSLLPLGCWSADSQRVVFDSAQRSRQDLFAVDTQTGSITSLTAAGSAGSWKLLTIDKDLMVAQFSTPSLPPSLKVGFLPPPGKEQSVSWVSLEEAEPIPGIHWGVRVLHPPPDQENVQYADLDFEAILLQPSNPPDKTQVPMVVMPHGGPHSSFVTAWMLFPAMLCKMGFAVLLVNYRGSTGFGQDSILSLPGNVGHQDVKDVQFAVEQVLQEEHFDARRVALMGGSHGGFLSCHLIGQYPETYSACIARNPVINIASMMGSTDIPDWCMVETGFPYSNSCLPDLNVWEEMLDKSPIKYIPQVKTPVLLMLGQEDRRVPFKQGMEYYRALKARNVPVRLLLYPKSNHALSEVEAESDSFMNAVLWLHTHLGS
The experiment in a line: In vitro determination of the inhibition of ACPH. Type of data set: biochemical. The conditions noted are these: rat brain homogenate; substrate 100 μM N-acetyl-methionyl-aminomethyl-coumarin; 30 min preincubation, 30 min reaction. As for the experimental part: In vitro determination of the Inhibition of ACPH
In the standard experiment, rat brains are homogenized in a 10-fold volume (w/v) of 50 mM tris HCl buffer, 1 mM EDTA, 100 mM NaCl, 0.1% BSA, 1 mM DDT, pH 7.2. The protein concentration of the homogenate is adjusted to approximately 5 mg/ml by dilution with buffer. The incubation batch (110 μl) contains 40 μl of buffer, various test concentrations of the test substances to be tested in 10 μl of buffer, 50 μl of brain homogenate and 100 μM N-acetyl-methionyl-aminomethyl-coumarin as the enzyme substrate. Before addition of the substrate, the reaction mixture is preincubated at room temperature for 30 min. The enzyme reaction is started by substrate addition. The reaction time is 30 min. Afterwards, the samples are activated in a fluorimeter at 390 nm and determined quantitatively at 460 nm. The IC50 value is calculated from the enzyme activity in the presence of increasing concentrations of test substance in the test. For the measurement of the ACPH activity, purified enzyme from liver or other organs can also be used and also homogenates of other organs having ACPH activity, such as liver or erythrocytes.

The structures appear in SMILES notation.

As usually defined, the melting point is the temperature, or range, at which the solid turns liquid. Molecule `O=C(N1CCCC1)n1oc(=O)c2ccccc21` [Example 3] came in with a melting point of 99 °C.

`O=C(N1CC2CCC2C1)n1oc(=O)c2ccc(Cl)cc21` (centres unmarked) [Example 12] yielded a melting point of 98 °C.

Turning to `O=C(N1CCOCC1)n1oc(=O)c2cc(Cl)ccc21` [Example 19], the melting point is 153 °C.

`O=C(N1CCC1)n1oc(=O)c2ccccc21` [Example 2] gave a melting point of 163 °C.

For the molecule `O=C(N1CCOCC1)n1oc(=O)c2ccc(Cl)cc21` [Example 10], the melting point amounted to 116 °C.

As a reminder, the IC50 is the concentration that inhibits the measured activity by half. A low value points to greater potency in that assay. Turning to `CN(C)C(=O)n1oc(=O)c2ccccc21` [Example 5], the melting point worked out at 93 °C. For the same molecule, the IC50 in data set [1] was 0.018 µM.

`O=C(N1CCOCC1)n1oc(=O)c2c(F)cccc21` [Example 14] displayed a melting point of 141 °C.

Take `O=C(N1CCCC1)n1oc(=O)c2cc(F)c(F)cc21` [Example 7]: the melting point worked out at 133 °C. Further, in data set [1], the IC50 was found to be 0.099 µM.

For `CN(CCCl)C(=O)n1oc(=O)c2cc(Cl)ccc21`, the melting point is 52 °C.

In turn, `O=C(N1CCCC1)n1oc(=O)c2c(F)cccc21` [Example 4] yielded a melting point of 109 °C. In data set [1], this molecule had an IC50 of 0.006 µM.

Consider `O=C(N1CCCC1)n1oc(=O)c2cc(Cl)ccc21` [Example 8], for which the melting point came to 103 °C.

Molecule `Cc1ccc2c(c1)c(=O)on2C(=O)N1CCCC1` [Example 6] displayed a melting point of 129 °C. In data set [1], this molecule had an IC50 of 0.048 µM.

`O=C(N1CC2CCC2C1)n1oc(=O)c2cc(Cl)ccc21` (centres unmarked) [Example 15] gave a melting point of 85 °C.
